These results are taken from PubChem BioAssay (NCI).

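Interpolation was linear, between the two tested concentrations surrounding the appropriate level; five concentrations were tested over 48 hours in 96-well plates. TGI denotes the concentration required for complete inhibition of growth.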

Among the test systems are HOP-62 NSCLC; NCI-H226 lung; KM12 colon; TK-10 renal; HS 578T breast; A498 renal; OVCAR-8 ovarian; HL-60(TB) leukemia; HCT-116 colon; 786-0 renal.
Assay in all cases: NCI tumour cell line growth inhibition, 48 h

With `Nc1ncc(Cl)c(NCC2(CO)CC(CCc3ccccc3)C2)n1` (stereo not given), the TGI with HOP-62 NSCLC, with NCI-H226 lung, with KM12 colon, with TK-10 renal, in the test with HS 578T breast and in the test with A498 renal was above 100 µM in each case. The TGI in the test with OVCAR-8 ovarian, with HL-60(TB) leukemia, with HCT-116 colon and in the test with 786-0 renal was above 100 µM each time.
On to `CC1(C)CC(=O)C2=C(C1)NC1=C(C(=O)CC(C)(C)C1)C2c1ccc([N+](=O)[O-])cc1`, for which the TGI with HOP-62 NSCLC, in the test with NCI-H226 lung, in the test with KM12 colon, in the test with TK-10 renal, with HS 578T breast and in the test on A498 renal was above 100 µM throughout. The TGI in the test with OVCAR-8 ovarian, in the test with HL-60(TB) leukemia, in the test on HCT-116 colon and with 786-0 renal was above 100 µM in each case.
With `CC=CCOc1cc(NC(=S)OC(C)C)ccc1Cl` (mixture of isomers), the TGI with HOP-62 NSCLC is 45.4 µM; in the test on NCI-H226 lung it was 33 µM; in the test on KM12 colon, 33.4 µM; in the test on TK-10 renal, 29.2 µM; in the test on HS 578T breast, 43.9 µM; with A498 renal it was 30.7 µM. Further, the TGI with OVCAR-8 ovarian was determined as 33.9 µM; in the test on HL-60(TB) leukemia, 55.7 µM; in the test with HCT-116 colon it was 33.6 µM; in the test with 786-0 renal it was 31.6 µM.
Turning to `C=C(C)CC1(O)C(=O)C(OCC)=C1OCC` (stereo not given), the TGI in the test on HOP-62 NSCLC, with NCI-H226 lung, in the test with KM12 colon, in the test on TK-10 renal, with HS 578T breast and in the test with A498 renal was above 100 µM in each case. In addition, the TGI in the test with OVCAR-8 ovarian, in the test on HL-60(TB) leukemia, in the test with HCT-116 colon and in the test with 786-0 renal was above 100 µM each time.
Turning to `OC[C@]1(n2nc3ccccc3n2)OC[C@@H]1c1ccccc1`, the TGI in the test on HOP-62 NSCLC, in the test on NCI-H226 lung, in the test with KM12 colon, in the test with TK-10 renal, with HS 578T breast and with A498 renal was above 100 µM each time. For the same compound, the TGI with OVCAR-8 ovarian is above 100 µM; in the test with HL-60(TB) leukemia, 93.9 µM; with HCT-116 colon, above 100 µM; in the test with 786-0 renal it was above 100 µM.
Consider `Cc1cc(S(=O)(=O)/N=C(\[N-]S(=O)(=O)c2ccc(Cl)cc2)[n+]2ccc(N(C)C)cc2)c(S)cc1Cl`, for which the TGI in the test on HOP-62 NSCLC was above 100 µM; in the test on NCI-H226 lung, above 100 µM; in the test with KM12 colon it was above 100 µM; in the test with TK-10 renal, above 100 µM; in the test on HS 578T breast, above 100 µM; with A498 renal, 99.2 µM. Also, the TGI is above 100 µM with OVCAR-8 ovarian, above 100 µM in the test with HL-60(TB) leukemia, 44.7 µM in the test with HCT-116 colon and above 100 µM in the test with 786-0 renal.
`O=C(/C=C1\C[C@H]2C=Nc3ccccc3C(=O)N2C1)NCCCCNC(=O)/C=C1\C[C@H]2C=Nc3ccccc3C(=O)N2C1`: the TGI with HOP-62 NSCLC was 38.5 µM; in the test with NCI-H226 lung it was 59.5 µM; with KM12 colon it was 33.3 µM; in the test with TK-10 renal, 23.8 µM; in the test with HS 578T breast, above 88.7 µM; in the test with A498 renal, 32.9 µM. Further, the TGI with OVCAR-8 ovarian amounted to 9.76 µM; with HL-60(TB) leukemia, 12.6 µM; in the test with HCT-116 colon it was 25.9 µM; in the test with 786-0 renal, 3.32 µM.
For the compound `COc1ccc2c(c1)/C(=C\c1c(C)nc3sc(C)cn13)C(=O)N2`, the TGI with HOP-62 NSCLC is above 100 µM; in the test on NCI-H226 lung, above 87.6 µM; in the test with KM12 colon it was 62.4 µM; with TK-10 renal it was above 100 µM; with HS 578T breast it was 10.3 µM; with A498 renal, 5.42 µM. For the same compound, the TGI in the test on OVCAR-8 ovarian was determined as 41.6 µM; in the test on HL-60(TB) leukemia, 3.63 µM; with HCT-116 colon it was 25 µM; with 786-0 renal, 72.7 µM.
Consider `COc1cc(/C=C2/SC(c3ccccc3)N(c3ccccc3)C2=O)cc(OC)c1OC` (stereo not given), for which the TGI in the test on HOP-62 NSCLC, in the test with NCI-H226 lung, with KM12 colon, in the test with TK-10 renal, with HS 578T breast and in the test on A498 renal was above 100 µM each time. Moreover, the TGI with OVCAR-8 ovarian, with HL-60(TB) leukemia, with HCT-116 colon and in the test on 786-0 renal was above 100 µM in each case.
In the case of `CC(C)(C)c1cc2c(O)c(c1)Cc1cc(C(C#N)(Cc3ccc4ccccc4c3)Cc3ccc4ccccc4c3)cc(c1O)Cc1cc(C(C)(C)C)cc(c1O)Cc1cc(C(C#N)(Cc3ccc4ccccc4c3)Cc3ccc4ccccc4c3)cc(c1O)C2`, the TGI with HOP-62 NSCLC, in the test with NCI-H226 lung, in the test with KM12 colon, in the test with TK-10 renal, with HS 578T breast and with A498 renal was above 100 µM in each case. The TGI in the test on OVCAR-8 ovarian, in the test with HL-60(TB) leukemia, in the test on HCT-116 colon and with 786-0 renal was above 100 µM throughout.
Turning to `Oc1ccccc1C=Nc1ccc(-c2nc3ccccc3[nH]2)cc1`, the TGI with HOP-62 NSCLC, with NCI-H226 lung, in the test on KM12 colon, with TK-10 renal, in the test on HS 578T breast and in the test with A498 renal was above 100 µM throughout. Further, the TGI in the test with OVCAR-8 ovarian, in the test with HL-60(TB) leukemia, in the test on HCT-116 colon and in the test on 786-0 renal was above 100 µM each time.
Turning to `CCN(CC)CCN1C(=O)c2c(c(-c3ccccc3)c3ccccc3c2-c2ccccc2)C1=O`, the TGI in the test with HOP-62 NSCLC, in the test on NCI-H226 lung, with KM12 colon, with TK-10 renal, with HS 578T breast and in the test with A498 renal was above 100 µM each time. Further, the TGI in the test with OVCAR-8 ovarian, in the test with HL-60(TB) leukemia, in the test on HCT-116 colon and in the test with 786-0 renal was above 100 µM throughout.
Take `CCOP(=O)(C/C=C/Cn1nc(Br)c(=O)[nH]c1=O)OCC`: the TGI in the test on HOP-62 NSCLC, in the test with NCI-H226 lung, with KM12 colon, with TK-10 renal, with HS 578T breast and with A498 renal was above 100 µM each time. The TGI with OVCAR-8 ovarian, in the test on HL-60(TB) leukemia, in the test on HCT-116 colon and in the test with 786-0 renal was above 100 µM each time.
Take `O=C(Nc1nn(C(=O)c2ccc(Cl)cc2)c(=O)s1)c1ccc(Cl)cc1`: the TGI with HOP-62 NSCLC, in the test with NCI-H226 lung, in the test on KM12 colon, in the test with TK-10 renal, in the test with HS 578T breast and in the test on A498 renal was above 100 µM throughout. In addition, the TGI in the test on OVCAR-8 ovarian, with HL-60(TB) leukemia, with HCT-116 colon and with 786-0 renal was above 100 µM throughout.
Regarding `CC(=O)NNc1nc(C)c(C(/C=C/c2ccc([N+](=O)[O-])cc2)=N/NC(N)=S)s1`, the TGI in the test on HOP-62 NSCLC, in the test with NCI-H226 lung, with KM12 colon, in the test with TK-10 renal, in the test with HS 578T breast and in the test on A498 renal was above 100 µM each time. The TGI in the test on OVCAR-8 ovarian, in the test on HL-60(TB) leukemia, in the test on HCT-116 colon and in the test on 786-0 renal was above 100 µM throughout.
Regarding `CC(C)OP(=O)(OC(C)C)/C(C#N)=C/c1ccco1`, the TGI in the test on HOP-62 NSCLC, in the test on NCI-H226 lung, in the test on KM12 colon, in the test on TK-10 renal, in the test on HS 578T breast and with A498 renal was above 100 µM each time. The TGI in the test with OVCAR-8 ovarian, in the test on HL-60(TB) leukemia, in the test with HCT-116 colon and with 786-0 renal was above 100 µM throughout.
For `O=C(O)CNc1ccc(C(=O)O)cc1`, the TGI in the test on HOP-62 NSCLC, in the test on NCI-H226 lung, with KM12 colon, in the test on TK-10 renal, with HS 578T breast and with A498 renal was above 100 µM in each case. Moreover, the TGI in the test with OVCAR-8 ovarian, in the test on HL-60(TB) leukemia, in the test on HCT-116 colon and with 786-0 renal was above 100 µM throughout.
Consider `CCOC(=O)C(C(=O)c1ccccc1C(=O)OC)=P(c1ccccc1)(c1ccccc1)c1ccccc1`, for which the TGI in the test with HOP-62 NSCLC, in the test with NCI-H226 lung, in the test on KM12 colon, in the test with TK-10 renal, with HS 578T breast and in the test with A498 renal was above 10 µM throughout. The TGI in the test with OVCAR-8 ovarian, in the test on HL-60(TB) leukemia, with HCT-116 colon and in the test with 786-0 renal was above 10 µM each time.
With `Cc1cc(-c2nc3ccccc3s2)ccc1N`, the TGI in the test with HOP-62 NSCLC is above 100 µM; with NCI-H226 lung, above 92 µM; in the test on KM12 colon, above 81.2 µM; in the test with TK-10 renal it was above 100 µM; in the test with HS 578T breast, above 100 µM; in the test with A498 renal, above 94.5 µM. Moreover, the TGI in the test with OVCAR-8 ovarian was above 89.3 µM; in the test on HL-60(TB) leukemia, above 90.3 µM; with HCT-116 colon, above 78.7 µM; in the test on 786-0 renal, above 79.6 µM.
`COC(=O)C1c2c(c3ccccc3n2C(=O)OC)CCN2CCC1C(S(=O)(=O)c1ccccc1)C2=O` (stereo not given): the TGI with HOP-62 NSCLC, in the test on NCI-H226 lung, with KM12 colon, in the test with TK-10 renal, in the test on HS 578T breast and in the test with A498 renal was above 100 µM in each case. Also, the TGI in the test with OVCAR-8 ovarian, in the test on HL-60(TB) leukemia, with HCT-116 colon and in the test with 786-0 renal was above 100 µM in each case.
Turning to `O=C1N2CCc3c([nH]c4ccccc34)C23CC2CCCCC12S3` (stereo not given), the TGI with HOP-62 NSCLC, in the test with NCI-H226 lung, with KM12 colon, with TK-10 renal, with HS 578T breast and in the test on A498 renal was above 100 µM each time. In addition, the TGI in the test on OVCAR-8 ovarian, in the test on HL-60(TB) leukemia, in the test on HCT-116 colon and in the test with 786-0 renal was above 100 µM throughout.
